What all share (format): functional
The species named for test [1] is Homo sapiens. In words: In vitro effect on lipoxygenase activity in intact human polymorphonuclear leukocytes at a concentration of 10 e-4 M on formation of Leukotriene B4 (LTB4).
The species entered for test [2] is Homo sapiens. Briefly: In vitro effect on lipoxygenase activity in intact human polymorphonuclear leukocytes at a concentration of 10 e-4 M on formation of 5-HETE.
Test [3] is filed under the species Homo sapiens. Briefly: In vitro effect on lipoxygenase activity in intact human polymorphonuclear leukocytes at a concen of 10 e-4 M on formation of 5-HETE.

Take `CCCCC/C=C\C/C=C\C/C=C\C(C)(C)/C=C\CCCC(=O)O`: the Effect in the test listed under Homo sapiens [1] stood at 19%; in the test listed under Homo sapiens [2] it was 29%.

Consider `CCCCC/C=C\C/C=C\C/C=C\Cc1ccccc1CCCC(=O)O`, for which the Effect in the test filed under Homo sapiens [1] was -91%; in the test filed under Homo sapiens [3], -94%.

Turning to `CCCCC/C=C\C/C=C\C(C)(C)/C=C\C/C=C\CCCC(=O)O`, the results for the Effect in the test filed under Homo sapiens [1] and in the test listed under Homo sapiens [3] were 40% and 60%, respectively.
